From patent US9180159B2, “Use of cell-permeable peptide inhibitors of the JNK signal transduction pathway for the treatment of chronic or non-chronic inflammatory digestive diseases” (Xigen Inflammation Ltd., priority 2008, dated 2015)
Non-standard residues stand in square brackets, D forms with d.

Experiments:
[1] = test system: TC-3 cell cultures; assay: Cellular import and intracellular persistence of fluorescein-labeled peptides in TC-3 cells; format: cell-based; conditions: 1 μM
Description: The ability of the L- and D-enantiomeric forms of TAT and TAT-IB1(s) peptides (“TAT-IB peptides”) to enter cells was evaluated. L-TAT, D-TAT, L-TAT-IB1(s), and D-TAT-IB1(s) peptides [SEQ ID NOs: 5, 6, 9 and 12, respectively] were labeled by N-terminal addition of a glycine residue conjugated to fluorescein. Labeled peptides (1 μM) were added to TC-3 cell cultures, which were maintained as described in Example 3. At predetermined times cells were washed with PBS and fixed for five minutes in ice-cold methanol-acetone (1:1) before being examined under a fluorescence microscope. Fluorescein-labeled BSA (1 μM, 12 moles/mole BSA) was used as a control.
Little to no signal was present at 48 hours.

[2] = test system: TNBS-induced colitis; assay: TNBS-induced colitis (IBD study) in BALB/c mice, Example 12; format: in vivo; conditions: for clinical score: XG-102 any dose, route or schedule, Sulfasalazine 10 mg/kg PO daily
Description: b) Constitution of test groups and dose levels • The table below lists the experimental groups comprising the study.
c) Test Procedures • Colitis was induced by administration of TNBS […], as a single or repeated daily doses (see above).
d) Observations and Examinations • i) Clinical signs • Throughout the duration of the above experiment, careful clinical examinations were carried out and recorded. Observations included changes external appearance, e.g. of the skin, fur, eyes, mucous membranes, occurrence of secretions and excretions (e.g. diarrhea), and autonomic activity. Changes in gait, posture and response to handling, as well as the presence of bizarre behavior, tremors, convulsions, sleep and coma were also noted. • ii) Body weights • Determination of individual body weight of animals was made on a daily basis. • iii) Clinical assessment of colitis • Body weight, stool consistency and bleeding per rectum were all recorded daily and served as the parameters of disease severity score:
• iv) Gross pathology of the colon • On the last day of the experiment, animals were euthanized and the colon was removed for gross pathology evaluation according to the following score: […]

[3] = test system: transient global ischemia; conditions: Carboni et al. 2004; cited from earlier work
[4] = test system: primary embryonic cultures and differentiated PC12 cells; conditions: at dosages that inhibit activation of JNKs; after trophic withdrawal; cited from earlier work
[5] = mice treated with 1-methyl-4-phenyl tetrahydropyridine; cited from earlier work
[6] = test system: cultured chick embryonic dorsal root ganglion, sympathetic, ciliary and motor neurons; conditions: Borasio et al. 1998; cited from earlier work
[7] = test system: Primary cultured macrophages; assay: Incorporation of XG-102 into primary cultured macrophages, detected with a specific antibody; format: cell-based; conditions: incubated with peptide and extensively washed
Description: FIG. 8 Primary cultured macrophages were incubated with XG-102 (SEQ ID NO: 11) and extensively washed.

[8] = test system: THP-1 cells; assay: LPS-induced cytokine and chemokine release in THP-1 cells; format: cell-based
Text: (§1) XG-102 (SEQ ID NO:11) inhibits cytokine release in both myeloid and lymphoid cell lines, reducing LPS-induced TNFa, IL-6 and MCP-1 release in THP-1 cells (Panels A-C) and PMA & ionomycin-induced IFNg, IL-6 and IL-2 production in Jurkat cells (Panels D-F).

[9] = test system: Jurkat cells; assay: PMA & ionomycin-induced cytokine production in Jurkat cells; format: cell-based
Text: as §1

[10] = test system: murine macrophages; assay: LPS-induced cytokine release in murine macrophages; format: cell-based
[11] = test system: murine T cells; assay: PMA & ionomycin-induced cytokine production in murine T cells; format: cell-based
[12] = test system: primary lymphoid and myeloid cells; assay: Cytotoxicity in primary cells (FIG. 12 Panel F); format: cell-based, murine
[13] = test system: TNBS-induced colitis; assay: TNBS-induced colitis in mice (FIG. 13); format: in vivo; conditions: subcutaneous, 50 and 100 mg/kg
Text: JNK is activated in macrophages and lymphocytes of patients with inflammatory bowel disease, a response correlated with increased TNFa, IL-6 and IFNg production in lesions.

[14] = test system: recombinant JNK1, JNK2 and JNK3; assay: Solid phase kinase assay, phosphorylation of c-Jun, ATF2 and Elk1 by recombinant JNKs; format: biochemical; conditions: GST-Jun (aa 1-73), 0-250 μM dosage study
Description: The effects of the peptides on JNKs-mediated phosphorylation of their target transcription factors were investigated in vitro. Recombinant and non activated JNK1, JNK2 and JNK3 were produced using a TRANSCRIPTION AND TRANSLATION rabbit reticulocyte lysate kit (Promega) and used in solid phase kinase assays with c-Jun, ATF2 and Elk1, either alone or fused to glutathione-S-transferase (GST), as substrates. Dose response studies were performed wherein L-TAT or L-TAT-IB1(s) peptides (0-25 μM) were mixed with the recombinant JNK1, JNK2, or JNK3 kinases in reaction buffer (20 mM Tris-acetate, 1 mM EGTA, 10 mM p-nitrophenyl-phosphate (pNPP), 5 mM sodium pyrophosphate, 10 mM p-glycerophosphate, 1 mM dithiothreitol) for 20 minutes. The kinase reactions were then initiated by the addition of 10 mM MgCl2 and 5 pCi ^33P-dATP and 1 μg of either GST-Jun (aa 1-89), GST-AFT2 (aa 1-96) or GST-ELK1 (aa 307-428). GST-fusion proteins were purchased from Stratagene (La Jolla, Calif.).
Ten μL of glutathione-agarose beads were also added to the mixture. Reaction products were then separated by SDS-PAGE on a denaturing 10% polyacrylamide gel. Gels were dried and subsequently exposed to X-ray films (Kodak). […] The ability of D-TAT, D-TAT-IB1(s) and L-TAT-IB1(s) peptides (0-250 μM dosage study) to inhibit GST-Jun (aa 1-73) phosphorylation by recombinant JNK1, JNK2, and JNK3 by were analyzed as described above. Overall, D-TAT-IB1(s) peptide decreased JNK-mediated phosphorylation of c-Jun, but at levels approximately 10-20 fold less efficiently than L-TAT-IB1(s).

[15] = test system: TC-3 cells; assay: IL-1 induced pancreatic beta-cell death in TC-3 cells treated with peptides; format: cell-based; conditions: one single addition 1 μM
Description: Inhibition of IL-1 induced pancreatic beta-cell death by the D-TAT-IB1(s) peptide was analyzed. TC-3 cells were incubated as described above for 30 minutes with one single addition of the indicated peptides (1, μM), then IL-1 (10 ng/ml) was added.
Apoptotic cells were then counted after two days of incubation with IL-1 by use of Propidium Iodide and Hoechst 33342 nuclear staining. A minimum of 1,000 cells were counted for each experiment.
Long term inhibition of IL-1P induced cell-death by the D-TAT-IB1 peptide was also analyzed. TC-3 cells were incubated as above for 30 minutes with one single addition of the indicated peptides (1 μM), then IL-1 (10 ng/ml) was added, followed by addition of the cytokine every two days. Apoptotic cells were then counted after 15 days of incubation with IL-1 by use of propidium iodide and Hoechst 33342 nuclear staining. […] A minimum of 1.000 cells were counted for each experiment.

[16] = test system: JNK; conditions: JBDs; Dickens et al. Science 277: 693 (1997); cited from earlier work

Fluorescein-labeled BSA: Fluorescein-labeled BSA (1 μM, 12 moles/mole BSA) used as a control [reference compound]
entry into cells [1]: did not enter the cells

O=C(O)c1cc(/N=N/c2ccc(S(=O)(=O)Nc3ccccn3)cc2)ccc1O [Sulfasalazine, reference compound]
clinical score [2]: reduction in the clinical score | gross pathology score of the colon ([2]; end of study, 10 mg/kg PO daily): effective in reducing the gross pathology completely

N#CC(c1ccnc(NCCc2cccnc2)n1)c1nc2ccccc2s1 (stereo not shown) [AS601245]
delayed loss of hippocampal CA1 neurons [3]: significant protection

CCSCc1ccc2c(c1)c1c3c(c4c5cc(CSCC)ccc5n5c4c1n2[C@H]1C[C@](O)(C(=O)OC)[C@]5(C)O1)CNC3=O [CEP-1347]
neuronal survival [4]: promotes neuronal survival | neuronal survival [5]: promotes neuronal survival | long term-survival of neurons [6]: promote long term-survival

NH2-DQSRPVQPFLNLTTPRKPRPPRRRQRRKKRG-COOH (H-[dD][dQ][dS][dR][dP][dV][dQ][dP][dF][dL][dN][dL][dT][dT][dP][dR][dK][dP][dR][dP][dP][dR][dR][dR][dQ][dR][dR][dK][dK][dR]G-OH) [XG-102]
incorporation into primary macrophages [7]: strongly incorporated | LPS-induced IL-6 release [8]: reducing | LPS-induced MCP-1 release [8]: reducing | LPS-induced TNFa release [8]: reducing | PMA & ionomycin-induced IFNg production [9]: reducing | PMA & ionomycin-induced IL-2 production [9]: reducing | PMA & ionomycin-induced IL-6 production [9]: reducing | LPS-induced IL-6 release [10]: reducing | LPS-induced Rantes release [10]: reducing | LPS-induced TNFa release [10]: reducing | PMA & ionomycin-induced IFNg production [11]: reducing | PMA & ionomycin-induced TNFa production [11]: reducing | cytotoxicity at concentrations inhibiting cytokine release [12]: non-cytotoxic concentrations | DAI [13]: diminishing | protection from TNBS-induced colitis [13]: protects mice from TNBS-induced colitis | rectal bleeding [13]: diminishing | weight loss [13]: diminishing | clinical signs ([2]; 0.01-1000 μg/kg SC or PO, single or daily for 7 days): No abnormalities were observed | disease recovery (conclusion) ([2]; SC or PO): active in enhancing diseases recovery | clinical score [2]: an effect equivalent to or better than the one observed with the commonly used reference drug sulfasalazine | body weights (TNBS induced weight loss) ([2]; mouse, in vivo): either prevented the weight loss or ameliorated the symptoms and supported recovery | mortality rate ([2]; whole study): No mortality was recorded | entry into cells [1]: efficiently and rapidly (less than five minutes) entered cells | decrease of JNK-mediated phosphorylation of c-Jun, fold less efficient than L-TAT-IB1(s) [14]: 10-20 fold | long term protection from IL-1 induced cell-death, 15 days ([15]; IL-1 10 ng/ml every two days): able to confer long term (15 day) protection

NH2-TDQSRPVQPFLNLTTPRKPRYTDPPRRRQRRKKRG-COOH (HELM PEPTIDE1{[dT].[dD].[dQ].[dS].[dR].[dP].[dV].[dQ].[dP].[dF].[dL].[dN].[dL].[dT].[dT].[dP].[dR].[dK].[dP].[dR].[dY].[dT].[dD].[dP].[dP].[dR].[dR].[dR].[dQ].[dR].[dR].[dK].[dK].[dR].G}$$$$V2.0; SMILES CC(C)C[C@@H](NC(=O)[C@@H](Cc1ccccc1)NC(=O)[C@H]1CCCN1C(=O)[C@@H](CCC(N)=O)NC(=O)[C@H](NC(=O)[C@H]1CCCN1C(=O)[C@@H](CCCNC(=N)N)NC(=O)[C@@H](CO)NC(=O)[C@@H](CCC(N)=O)NC(=O)[C@@H](CC(=O)O)NC(=O)[C@H](N)[C@H](C)O)C(C)C)C(=O)N[C@H](CC(N)=O)C(=O)N[C@H](CC(C)C)C(=O)N[C@@H](C(=O)N[C@@H](C(=O)N1CCC[C@@H]1C(=O)N[C@H](CCCNC(=N)N)C(=O)N[C@H](CCCCN)C(=O)N1CCC[C@@H]1C(=O)N[C@H](CCCNC(=N)N)C(=O)N[C@H](Cc1ccc(O)cc1)C(=O)N[C@@H](C(=O)N[C@H](CC(=O)O)C(=O)N1CCC[C@@H]1C(=O)N1CCC[C@@H]1C(=O)N[C@H](CCCNC(=N)N)C(=O)N[C@H](CCCNC(=N)N)C(=O)N[C@H](CCCNC(=N)N)C(=O)N[C@H](CCC(N)=O)C(=O)N[C@H](CCCNC(=N)N)C(=O)N[C@H](CCCNC(=N)N)C(=O)N[C@H](CCCCN)C(=O)N[C@H](CCCCN)C(=O)N[C@H](CCCNC(=N)N)C(=O)NCC(=O)O)[C@H](C)O)[C@H](C)O)[C@H](C)O) [D-TAT-IB1]
IL-1 induced apoptosis after two days ([15]; IL-1 10 ng/ml): decreased IL-1 induced apoptosis to a similar extent as L-TAT-IB peptides

NH2-RRRQRRKKRG-COOH (D-amino acids; Description of sequence Peptide D-TAT (see Table 1))
entry into cells [1]: efficiently and rapidly (less than five minutes) entered cells

NH2-GRKKRRQRRR-COOH (H-GRKKRRQRRR-OH) [L-TAT]
entry into cells [1]: efficiently and rapidly (less than five minutes) entered cells

NH2-PGTGCGDTYRPKRPTTLNLFPQVPRSQDT-COOH (H-PGTGCGDTYRPKRPTTLNLFPQVPRSQDT-OH) [IB1-long]
efficiency in binding JNK relative to c-Jun or ATF2 [16]: approximately 100 fold

NH2-IPSPSVEEPHKHRPTTLRLTTLGAQDS-COOH (H-IPSPSVEEPHKHRPTTLRLTTLGAQDS-OH) [IB2-long]
efficiency in binding JNK relative to c-Jun or ATF2 [16]: approximately 100 fold
